# Assays:
# Format in all cases: cell-based
# NCI-H2052 = assay: Mesothelioma cell line proliferation assay (ATPlite), NCI-H2052; conditions: NCI-H2052 cells, 6 days with compound, ATPlite cell viability
# Description: (§1) Mesothelioma cell lines, NCI-H226 and NCI-H2052 (both sourced from the ATCC cell culture collection) were plated in 96-well plates (Corning® 96 Well White Polystyrene Microplate clear flat bottom, white polystyrene (TC-Treated)), at 1500 cells/well in full medium (RPMI 1640 ATCC modification with L-glutamine, HEPES, Phenol Red, Sodium Pyruvate, High glucose, Low sodium bicarbonate and 10% fetal bovine serum). Cells were incubated overnight at 37° C. in an incubator with 5% CO2. Then compounds, dissolved in DMSO, were added in dose-response. Cells were incubated with compound dilutions for another 6 days at 37° C. in an incubator with 5% CO2. Cell viability was quantitated using the ATPlite kit (Perkin-Elmer) and the luminescence was read-out using an Envision instrument (Perkin-Elmer). The amount of relative light units produced using the ATPlite kit was used to calculate percent of inhibition.
# (§2) The activities of some example compounds are depicted in Table 4. The activity ranges A, B and C refer to EC50 values in the mesothelioma cell line proliferation assay as described as follows: “A”: EC50<1 μM; “B”: 1 μM≤EC50<10 μM and “C”: EC50>10 μM; NT: not tested.
# [1] = test system: YAP/TAZ-TEAD transcription; assay: Reporter gene assay for measuring the inhibition of YAP/TAZ-TEAD transcription (TEAD-responsive element luciferase reporter, Hek293T cells); conditions: Hek293T cells transfected with TEAD-responsive element luciferase reporter, 24 hours incubation
# Description: Hek293T cells were cultured in DMEM supplemented with 10% fetal bovine serum, Sodium pyruvate, Sodium bicarbonate, L-glutamine. The cells were harvested and transiently transfected with TEAD-responsive element luciferase reporter. Transfected cells were plated in 384-well plate containing pre-diluted compounds. After 24 hours incubation at 37° C./5% CO2, assay plates were cooled to room temperature and levelled to an equal volume per well, prior to the addition of 25 uL luciferase substrate SteadyLite (Perkin Elmer)/well. The plate was shaken for 10 min at 600 rpm, centrifuged for 1 min at 500 rpm and measured with an Envision reader (PerkinElmer). The amount of relative light units produced by the TEAD reporter was used to calculate the percentage of inhibition.
# The percent of reporter inhibition was calculated in the presence of a positive control inhibitor (100% inhibition) versus a condition with the presence of the vehicle basal activity of the reporter (0% inhibition). The ability of a test compound to inhibit this activity was determined as: Percentage inhibition=[1-((RLU determined in the presence of vehicle−RLU determined for sample with test compound present) divided by (RLU determined in the presence of vehicle−RLU determined for sample with positive control inhibitor))]*100.
# The activities of example compounds tested are depicted in Table 3. The activity ranges A, B and C refer to IC50 values in the reporter gene assay as follows: “A”: IC50<1 μM; “B”: 1 μM≤IC50 10 μM and “C”: IC50>10 μM; NT=not tested.
# NCI-H226 = assay: Mesothelioma cell line proliferation assay (ATPlite), NCI-H226; conditions: NCI-H226 cells, 6 days with compound, ATPlite cell viability
# Description: as §1, §2
SMILES,"EC50 (NCI-H2052; Homo sapiens, 144 h) [nM]","IC50 ([1]; Homo sapiens, HEK-293T, 24 h) [nM]","EC50 (NCI-H226; Homo sapiens, 144 h) [nM]",IC50 [1] [nM],EC50 (NCI-H2052) [nM],EC50 (NCI-H226) [nM]
"C=CC(=O)NCC1Cc2c(OCc3cc(=O)[nH]c(=O)n3C)cccc2N(c2ccc(C(F)(F)F)cc2)C1 (single isomer, unassigned) [Cpd. No. 14-En1, (R)- or (S)-N-((5-((3-methyl-2,6-dioxo-1,2,3,6-tetrahydropyrimidin-4-yl)methoxy)-1-(4-(trifluoromethyl)phenyl)-1,2,3,4-tetrahydroquinolin-3-yl)methyl)acrylamide]",< 1000,< 1000,< 1000,,,
"C=CC(=O)NCC1Cc2c(OCc3cc[nH]c(=O)c3)cccc2N(c2ccc(C(F)(F)F)cc2)C1 (single isomer, unassigned) [Cpd. No. 6-En2, (R)- or (S)-N-((5-((2-oxo-1,2-dihydropyridin-4-yl)methoxy)-1-(4-(trifluoromethyl)phenyl)-1,2,3,4-tetrahydroquinolin-3-yl)methyl)acrylamide]",< 1000,,< 1000,< 1000,,
"C=CC(=O)NCC1Cc2ncccc2N(c2ccc(C(F)(F)F)cc2)C1 (single isomer, unassigned) [Cpd. No. 10-En1, (R)- or (S)-N-((1-(4-(trifluoromethyl)phenyl)-1,2,3,4-tetrahydro-1,5-naphthyridin-3-yl)methyl)acrylamide]",< 1000,< 1000,< 1000,,,
"CC(=O)NCC1Cc2ncccc2N(c2ccc(C(F)(F)F)cc2)C1 (single isomer, unassigned) [Cpd. No. 12-En2, (R)- or (S)-N-((1-(4-(trifluoromethyl)phenyl)-1,2,3,4-tetrahydro-1,5-naphthyridin-3-yl)methyl)acetamide]",< 1000,,< 1000,< 1000,,
"CC(=O)NCC1Cc2ncccc2N(c2ccc(C(F)(F)F)cc2)C1 (stereo not shown) [Cpd. No. 12, N-((1-(4-(trifluoromethyl)phenyl)-1,2,3,4-tetrahydro-1,5-naphthyridin-3-yl)methyl)acetamide]",< 1000,< 1000,< 1000,,,
"C=CC(=O)NCC1Cc2c(OCc3cc(=O)[nH]c(=O)n3C)cccc2N(c2ccc(C(F)(F)F)cc2)C1 (single isomer, unassigned) [Cpd. No. 14-En2, (R)- or (S)-N-((5-((3-methyl-2,6-dioxo-1,2,3,6-tetrahydropyrimidin-4-yl)methoxy)-1-(4-(trifluoromethyl)phenyl)-1,2,3,4-tetrahydroquinolin-3-yl)methyl)acrylamide]",,,,,< 1000,< 1000
"C=CC(=O)NCC1Cc2ncccc2N(c2ccc(C(F)(F)F)cc2)C1 (stereo not shown) [Cpd. No. 10, N-((1-(4-(trifluoromethyl)phenyl)-1,2,3,4-tetrahydro-1,5-naphthyridin-3-yl)methyl)acrylamide]",< 1000,< 1000,< 1000,,,
"C=CC(=O)NCC1Cc2c(OCc3cc(=O)[nH]c(=O)n3C)cccc2N(c2ccc(C(F)(F)F)cc2)C1 (stereo not shown) [Cpd. No. 14, N-((5-((3-methyl-2,6-dioxo-1,2,3,6-tetrahydropyrimidin-4-yl)methoxy)-1-(4-(trifluoromethyl)phenyl)-1,2,3,4-tetrahydroquinolin-3-yl)methyl)acrylamide]",< 1000,< 1000,< 1000,,,
"CC(=O)NCC1(C)Cc2ncccc2N(c2ccc(C(F)(F)F)cc2)C1 (single isomer, unassigned) [Cpd. No. 47-En1, (R)- or (S)-N-((3-methyl-1-(4-(trifluoromethyl)phenyl)-1,2,3,4-tetrahydro-1,5-naphthyridin-3-yl)methyl)acetamide]",< 1000,,< 1000,< 1000,,
"C=CC(=O)NCC1Cc2c(OCc3cc(=O)[nH]c(=O)[nH]3)cccc2N(c2ccc(C(F)(F)F)cc2)C1 (stereo not shown) [Cpd. No. 4, N-((5-((2,6-dioxo-1,2,3,6-tetrahydropyrimidin-4-yl)methoxy)-1-(4-(trifluoromethyl)phenyl)-1,2,3,4-tetrahydroquinolin-3-yl)methyl)acrylamide]",< 1000,< 1000,< 1000,,,
"C=CC(=O)NCC1Cc2c(OCc3cc[nH]c(=O)c3)cccc2N(c2ccc(C(F)(F)F)cc2)C1 (single isomer, unassigned) [Cpd. No. 6-En1, (R)- or (S)-N-((5-((2-oxo-1,2-dihydropyridin-4-yl)methoxy)-1-(4-(trifluoromethyl)phenyl)-1,2,3,4-tetrahydroquinolin-3-yl)methyl)acrylamide]",,< 1000,,,,< 1000
"CCC(=O)NCC1Cc2ncccc2N(c2ccc(C(F)(F)F)cc2)C1 (single isomer, unassigned) [Cpd. No. 17-En2, (R)- or (S)-N-((1-(4-(trifluoromethyl)phenyl)-1,2,3,4-tetrahydro-1,5-naphthyridin-3-yl)methyl)propionamide]",< 1000,,< 1000,< 1000,,
"CC(=O)NCC1Cc2nc(C)ccc2N(c2ccc(C(F)(F)F)cc2)C1 (single isomer, unassigned) [Cpd. No. 26-En2, (R)- or (S)-N-((6-methyl-1-(4-(trifluoromethyl)phenyl)-1,2,3,4-tetrahydro-1,5-naphthyridin-3-yl)methyl)acetamide]",< 1000,,< 1000,< 1000,,
"[2H]C([2H])([2H])C(=O)NCC1Cc2ncccc2N(c2ccc(C(F)(F)F)cc2)C1 (single isomer, unassigned) [Cpd. No. 34-En2, (R)- or (S)-N-((1-(4-(trifluoromethyl)phenyl)-1,2,3,4-tetrahydro-1,5-naphthyridin-3-yl)methyl)acetamide-2,2,2-d3]",< 1000,,< 1000,< 1000,,
"C=CC(=O)NCC1Cc2c(OCc3cc[nH]c(=O)c3)cccc2N(c2ccc(C(F)(F)F)cc2)C1 (stereo not shown) [Cpd. No. 6, N-((5-((2-oxo-1,2-dihydropyridin-4-yl)methoxy)-1-(4-(trifluoromethyl)phenyl)-1,2,3,4-tetrahydroquinolin-3-yl)methyl)acrylamide]",< 1000,< 1000,< 1000,,,
"C=CC(=O)NCC1Cc2c(CCN3CC(=O)NC(=O)C3)cccc2N(c2ccc(C(F)(F)F)cc2)C1 (stereo not shown) [Cpd. No. 11, N-((5-(2-(3,5-dioxopiperazin-1-yl)ethyl)-1-(4-(trifluoromethyl)phenyl)-1,2,3,4-tetrahydroquinolin-3-yl)methyl)acrylamide]",< 1000,< 1000,< 1000,,,
"CCC(=O)NCC1Cc2c(OCc3cc[nH]c(=O)c3)cccc2N(c2ccc(C(F)(F)F)cc2)C1 (stereo not shown) [Cpd. No. 7, N-((5-((2-oxo-1,2-dihydropyridin-4-yl)methoxy)-1-(4-(trifluoromethyl)phenyl)-1,2,3,4-tetrahydroquinolin-3-yl)methyl)propionamide]",< 1000,< 1000,< 1000,,,
"COc1ccc2c(n1)CC(CNC(C)=O)CN2c1ccc(C(F)(F)F)cc1 (single isomer, unassigned) [Cpd. No. 22-En2, (R)- or (S)-N-((6-methoxy-1-(4-(trifluoromethyl)phenyl)-1,2,3,4-tetrahydro-1,5-naphthyridin-3-yl)methyl)acetamide]",< 1000,,< 1000,< 1000,,
"CC(=O)NCC1Cc2nc(C)ccc2N(c2ccc(C(F)(F)F)cc2)C1 (stereo not shown) [Cpd. No. 26, N-((6-methyl-1-(4-(trifluoromethyl)phenyl)-1,2,3,4-tetrahydro-1,5-naphthyridin-3-yl)methyl)acetamide]",< 1000,< 1000,< 1000,,,
